Publication PMC6001238, “Iterative Chemical Engineering of Vancomycin Leads to Novel Vancomycin Analogs With a High in Vitro Therapeutic Index” (Frontiers in Microbiology, 2018)
Converted amounts (≈) assume the structure as drawn.

Tests used:
[1] = tested on: E. faecalis VSE 1; experiment: MIC, broth microdilution, vancomycin-sensitive E. faecalis (VSE 1); type: cell-based, Enterococcus faecalis; details: for MIC: Enterococcus faecalis VSE 1 (vancomycin-sensitive), read-out: MIC; for MIC-fold improvement vs. vancomycin: VSE 1, ratio of MIC of vancomycin and MIC of analogue
Protocol: (§1) The minimum inhibitory concentration (MIC) was determined using the broth microdilution method according to the antimicrobial susceptibility testing standards of the clinical and laboratory standards institute ([Clinical and Laboratory Standards Institute [CLSI], 2012]). Ultrapure water and non-inoculated broth were used as controls. In one case, a final concentration of 10 μM vancomycin was included with the vancomycin analog or control antibiotic.

[2] = tested on: E. faecalis VRE 6; experiment: MIC, broth microdilution, vancomycin-resistant E. faecalis VRE 6 (VanA); type: cell-based, Enterococcus faecalis; details: for MIC: Enterococcus faecalis VRE 6 (vancomycin-resistant), read-out: MIC; for MIC-fold improvement vs. vancomycin: VRE 6, ratio of MIC of vancomycin and MIC of analogue
Protocol: as §1

[3] = tested on: E. faecalis VRE 53; experiment: MIC, broth microdilution, vancomycin-resistant E. faecalis VRE 53 (VanA); type: cell-based, Enterococcus faecalis; details: for MIC: Enterococcus faecalis VRE 53 (vancomycin-resistant), read-out: MIC; for MIC-fold improvement vs. vancomycin: VRE 53, ratio of MIC of vancomycin and MIC of analogue
Protocol: as §1

[4] = tested on: E. faecalis VRE 29; experiment: MIC, broth microdilution, vancomycin-resistant E. faecalis VRE 29 (VanA); type: cell-based, Enterococcus faecalis; details: for MIC: Enterococcus faecalis VRE 29 (vancomycin-resistant), read-out: MIC; for MIC-fold improvement vs. vancomycin: VRE 29, ratio of MIC of vancomycin and MIC of analogue
Protocol: as §1

[5] = tested on: E. faecalis VRE 37; experiment: MIC, broth microdilution, vancomycin-resistant E. faecalis VRE 37 (VanA); type: cell-based, Enterococcus faecalis; details: for MIC: Enterococcus faecalis VRE 37 (vancomycin-resistant), read-out: MIC
Protocol: as §1

[6] = tested on: Murine leukemia (L1210) cells; experiment: Cytostatic activity, L1210 cell proliferation; type: cell-based; details: mean ± SD of three experiments; highest concentration tested 250 µM; 2 days; read-out: Toxicity (IC50) L1210
Protocol: (§2) Murine leukemia (L1210), human T-lymphocyte (CEM) and the human cervix carcinoma (HeLa) cell line were suspended at 300,000–500,000 cells/mL of culture medium, and 100 μL of a cell suspension was added to 100 μL of an appropriate dilution of the test compounds in wells of 96-well microtiter plates. After incubation at 37°C for 2 (L1210), 3 (CEM), or 4 (HeLa) days, the cell number was determined using a Coulter counter. The IC50 was defined per cell type as the compound concentration required to inhibit cell proliferation by 50% compared to the negative control ([Glowacka et al., 2017]).

[7] = tested on: human T-lymphocyte (CEM) cells; experiment: Cytostatic activity, CEM cell proliferation; type: cell-based; details: mean ± SD of three experiments; highest concentration tested 250 µM; 3 days; read-out: Toxicity (IC50) CEM
Protocol: as §2

[8] = tested on: human cervix carcinoma (HeLa) cells; experiment: Cytostatic activity, HeLa cell proliferation; type: cell-based; details: mean ± SD of three experiments; highest concentration tested 250 µM; 4 days; read-out: Toxicity (IC50) HeLa
Protocol: as §2

[9] = tested on: L1210, CEM and HeLa cell lines; experiment: Cytostatic activity, average or summary over L1210, CEM and HeLa; type: cell-based; details: average of L1210, CEM and HeLa; read-out: Toxicity (IC50) Average
Protocol: as §2

[10] = tested on: S. aureus VSSA (ATCC 6538); experiment: MIC, broth microdilution, vancomycin-sensitive S. aureus (VSSA/MSSA, ATCC 6538); type: cell-based, Staphylococcus aureus; details: for MIC: Staphylococcus aureus VSSA, read-out: MIC; for MIC-fold improvement vs. vancomycin: VSSA, ratio of MIC of vancomycin and MIC of analogue
Protocol: as §1

[11] = tested on: S. aureus VISA/HIP5827; experiment: MIC, broth microdilution, vancomycin-intermediate S. aureus VISA HIP5827; type: cell-based, Staphylococcus aureus; details: for MIC: Staphylococcus aureus VISA/HIP5827, read-out: MIC; for MIC-fold improvement vs. vancomycin: VISA/HIP5827, ratio of MIC of vancomycin and MIC of analogue
Protocol: as §1

[12] = tested on: S. aureus VRSA; experiment: MIC, broth microdilution, vancomycin-resistant S. aureus (VRSA); type: cell-based, Staphylococcus aureus; details: for MIC: Staphylococcus aureus VRSA, read-out: MIC; for MIC-fold improvement vs. vancomycin: VRSA, ratio of MIC of vancomycin and MIC of analogue
Protocol: as §1

[13] = tested on: MRSA KS2; experiment: MIC, broth microdilution, MRSA KS2; type: cell-based, Staphylococcus aureus; details: for MIC-fold improvement vs. vancomycin: MRSA KS2, ratio of MIC of vancomycin and MIC of analogue; for MIC: Staphylococcus aureus MRSA KS2, read-out: MIC
Protocol: as §1

[14] = tested on: MRSA KS6; experiment: MIC, broth microdilution, MRSA KS6; type: cell-based, Staphylococcus aureus; details: for MIC-fold improvement vs. vancomycin: MRSA KS6, ratio of MIC of vancomycin and MIC of analogue; for MIC: Staphylococcus aureus MRSA KS6, read-out: MIC
Protocol: as §1

[15] = tested on: MRSA KS89; experiment: MIC, broth microdilution, MRSA KS89; type: cell-based, Staphylococcus aureus; details: for MIC-fold improvement vs. vancomycin: MRSA KS8, ratio of MIC of vancomycin and MIC of analogue; for MIC: Staphylococcus aureus MRSA KS8, read-out: MIC
Protocol: as §1

[16] = tested on: MRSA KS1; experiment: MIC, broth microdilution, MRSA KS1; type: cell-based, Staphylococcus aureus; details: for MIC-fold improvement vs. vancomycin: MRSA KS1, ratio of MIC of vancomycin and MIC of analogue; for MIC: Staphylococcus aureus MRSA KS1, read-out: MIC
Protocol: as §1

| SMILES | MIC [1] [µM] | MIC-fold improvement vs. vancomycin [1] | MIC [2] [µM] | MIC-fold improvement vs. vancomycin [2] | MIC [3] [µM] | MIC-fold improvement vs. vancomycin [3] | MIC [4] [µM] | MIC-fold improvement vs. vancomycin [4] | MIC [5] [µM] | IC50 [6] [µM] | IC50 [7] [µM] | IC50 [8] [µM] | IC50 [9] [µM] | MIC [10] [µM] | MIC-fold improvement vs. vancomycin [10] | MIC [11] [µM] | MIC-fold improvement vs. vancomycin [11] | MIC [12] [µM] | MIC-fold improvement vs. vancomycin [12] | MIC-fold improvement vs. vancomycin [13] | other results |
| --- | --- | --- | --- | --- | --- | --- | --- | --- | --- | --- | --- | --- | --- | --- | --- | --- | --- | --- | --- | --- | --- |
| CN[C@H](CC(C)C)C(=O)N[C@H]1C(=O)N[C@@H](CC(N)=O)C(=O)N[C@H]2C(=O)N[C@H]3C(=O)N[C@H](C(=O)N[C@H](C(=O)NCC(=O)Nc4ccc(OC)c(OC)c4)c4cc(O)cc(O)c4-c4cc3ccc4O)[C@H](O)c3ccc(c(Cl)c3)Oc3cc2cc(c3O[C@@H]2O[C@H](CO)[C@@H](O)[C@H](O)[C@H]2O[C@H]2C[C@](C)(N)[C@H](O)[C@H](C)O2)Oc2ccc(cc2Cl)[C@H]1O [Vanc-7] | 0.78 (≈ 1.28 µg/mL) | 2 | 12.5 (≈ 20.5 µg/mL) | 16 | 12.5 (≈ 20.5 µg/mL) | 32 | 12.5 (≈ 20.5 µg/mL) | 32 | 12.5 (≈ 20.5 µg/mL) | > 250 | > 250 | > 250 | > 250 | 0.78 (≈ 1.28 µg/mL) | 1 | 0.78 (≈ 1.28 µg/mL) | 8 | 12.5 (≈ 20.5 µg/mL) | 8 | 2 | MIC-fold improvement vs. vancomycin ([5]; VRE 37, ratio of MIC of vancomycin and MIC of analogue): 64; MIC [13]: 0.39 µM (≈ 0.64 µg/mL); MIC-fold improvement vs. vancomycin [14]: 1; MIC [14]: 0.78 µM (≈ 1.28 µg/mL); MIC-fold improvement vs. vancomycin [15]: 1; MIC [15]: 0.78 µM (≈ 1.28 µg/mL); MIC-fold improvement vs. vancomycin [16]: 1; MIC [16]: 0.78 µM (≈ 1.28 µg/mL) |
| CN[C@H](CC(C)C)C(=O)N[C@H]1C(=O)N[C@@H](CC(N)=O)C(=O)N[C@H]2C(=O)N[C@H]3C(=O)N[C@H](C(=O)N[C@H](C(=O)NCC(=O)Nc4ccc(N5CCOCC5)cc4)c4cc(O)cc(O)c4-c4cc3ccc4O)[C@H](O)c3ccc(c(Cl)c3)Oc3cc2cc(c3O[C@@H]2O[C@H](CO)[C@@H](O)[C@H](O)[C@H]2O[C@H]2C[C@](C)(N)[C@H](O)[C@H](C)O2)Oc2ccc(cc2Cl)[C@H]1O [Vanc-8] | 0.78 (≈ 1.3 µg/mL) | 2 | 12.5 (≈ 20.8 µg/mL) | 16 | 12.5 (≈ 20.8 µg/mL) | 32 | 25 (≈ 41.7 µg/mL) | 16 | 25 (≈ 41.7 µg/mL) | > 250 | ≥ 250 | 107 ± 25 | 202 | 1.56 (≈ 2.6 µg/mL) | 0.5 | 1.56 (≈ 2.6 µg/mL) | 4 | 25 (≈ 41.7 µg/mL) | 4 | 1 | MIC [13]: 0.78 µM (≈ 1.3 µg/mL); MIC-fold improvement vs. vancomycin [14]: 0.5; MIC [14]: 1.56 µM (≈ 2.6 µg/mL); MIC-fold improvement vs. vancomycin [15]: 1; MIC [15]: 0.78 µM (≈ 1.3 µg/mL); MIC-fold improvement vs. vancomycin [16]: 1; MIC [16]: 0.78 µM (≈ 1.3 µg/mL) |
